Where two headings read alike, the source gives them in different places.
System: HBV rcDNA in HepDE19 cells
Assay: HepDE19 assay with bDNA quantitation of HBV rcDNA
Type: cell-based, hepatitis B virus
Conditions: inhibition of rcDNA formation, bDNA quantitation, read-out: DE-19bDNA EC50
[1] = Hepatitis B virus, HepDE19, HepDE19 assay

CN(C(=O)c1cc2c(Cl)cccn2c1)C1COCc2[nH]c(=O)c3cc(F)c(F)cc3c21 (single isomer, unassigned) [Compound 18, 8-Chloro-N-(8,9-difluoro-6-oxo-1,4,5,6-tetrahydro-2H-pyrano[3,4-c]isoquinolin-1-yl)-N-methylindolizine-2-carboxamide]
EC50 (HepDE19 assay): 10 nM

CN(C(=O)c1ccc2c(c1)CCC2)C1COCc2[nH]c(=O)c3cc(F)ccc3c21 (single isomer, unassigned) [Compound 443, N-(8-Fluoro-6-oxo-1,4,5,6-tetrahydro-2H-pyrano[3,4-c]isoquinolin-1-yl)-N-methyl-2,3-dihydro-1H-indene-5-carboxamide]
EC50 (HepDE19 assay): 640 nM

CN(C(=O)c1cc2c(C(F)F)cc(F)cc2[nH]1)C1COCc2[nH]c(=O)c3cc(F)ccc3c21 (single isomer, unassigned) [Compound 238, 4-(Difluoromethyl)-6-fluoro-N-(8-fluoro-6-oxo-1,4,5,6-tetrahydro-2H-pyrano[3,4-c]isoquinolin-1-yl)-N-methyl-1H-indole-2-carboxamide]
EC50 (HepDE19 assay): 1400 nM

CN(C(=O)c1ccc(-c2cc(F)cc(F)c2)c(F)c1)[C@@H]1COCc2[nH]c(=O)c3cc(F)c(F)cc3c21 [Compound 287, (S)-N-(8,9-Difluoro-6-oxo-1,4,5,6-tetrahydro-2H-pyrano[3,4-c]isoquinolin-1-yl)-2,3′,5′-trifluoro-N-methyl-[1,1′-biphenyl]-4-carboxamide]
EC50 [1]: 12700 nM

CN(C(=O)c1cnc(C(F)(F)F)c(Cl)c1)C1CNCc2[nH]c(=O)c3cc(F)c(F)cc3c21 (single isomer, unassigned) [Compound 419, 5-Chloro-N-(8,9-difluoro-6-oxo-1,2,3,4,5,6-hexahydrobenzo[c][1,7]naphthyridin-1-yl)-N-methyl-6-(trifluoromethyl)nicotinamide]
EC50 [1]: 140 nM

CN(C(=O)c1cc2c(F)cccn2c1)C1C[S+]([O-])Cc2[nH]c(=O)c3cc(F)c(F)cc3c21 (single isomer, unassigned) [Compound 150, N-(8,9-Difluoro-3-oxido-6-oxo-1,4,5,6-tetrahydro-2H-thiopyrano[3,4-c]isoquinolin-1-yl)-8-fluoro-N-methylindolizine-2-carboxamide]
EC50 (HepDE19 assay): 1100 nM

CN(C(=O)c1cc2cc(F)c(C(F)F)cc2[nH]1)[C@@H]1COCc2[nH]c(=O)c3cc(F)c(F)cc3c21 [Compound 212, (S)-N-(8,9-Difluoro-6-oxo-1,4,5,6-tetrahydro-2H-pyrano[3,4-c]isoquinolin-1-yl)-6-(difluoromethyl)-5-fluoro-N-methyl-1H-indole-2-carboxamide]
EC50 [1]: 10 nM

CN(C(=O)c1ccc(Br)c(=O)[nH]1)[C@@H]1COCc2[nH]c(=O)c3cc(F)c(F)cc3c21 [Compound 216, (S)-5-Bromo-N-(8,9-difluoro-6-oxo-1,4,5,6-tetrahydro-2H-pyrano[3,4-c]isoquinolin-1-yl)-N-methyl-6-oxo-1,6-dihydropyridine-2-carboxamide]
EC50 [1]: 7300 nM

CN(C(=O)C(N)c1ccc(Cl)cc1)[C@@H]1COCc2[nH]c(=O)c3cc(F)c(F)cc3c21 (single isomer, unassigned) [Compound 199]
EC50 [1]: 14700 nM

CN(C(=O)c1cc2c(Cl)nc(Cl)cc2[nH]1)[C@@H]1COCc2[nH]c(=O)c3cc(F)c(F)cc3c21 [Compound 410, (S)-4,6-Dichloro-N-(8,9-difluoro-6-oxo-1,4,5,6-tetrahydro-2H-pyrano[3,4-c]isoquinolin-1-yl)-N-methyl-1H-pyrrolo[3,2-c]pyridine-2-carboxamide]
EC50 [1]: 40 nM

CN(C(=O)c1ccc(C(C)(C)O)cc1)[C@@H]1COCc2[nH]c(=O)c3cc(F)c(F)cc3c21 [Compound 154, (S)-N-(8,9-Difluoro-6-oxo-1,4,5,6-tetrahydro-2H-pyrano[3,4-c]isoquinolin-1-yl)-4-(2-hydroxypropan-2-yl)-N-methylbenzamide]
EC50 [1]: 1050 nM

CN(C(=O)c1cc2c(C#N)cc(F)cc2[nH]1)C1COCc2[nH]c(=O)c3cc(F)ccc3c21 (single isomer, unassigned) [Compound 382, 4-Cyano-6-fluoro-N-(8-fluoro-6-oxo-1,4,5,6-tetrahydro-2H-pyrano[3,4-c]isoquinolin-1-yl)-N-methyl-1H-indole-2-carboxamide]
EC50 (HepDE19 assay): 980 nM

COc1ccc2[nH]c(C(=O)N(C)[C@@H]3COCc4[nH]c(=O)c5cc(F)c(F)cc5c43)cc2c1 [Compound 324, (S)-N-(8,9-Difluoro-6-oxo-1,4,5,6-tetrahydro-2H-pyrano[3,4-c]isoquinolin-1-yl)-5-methoxy-N-methyl-1H-indole-2-carboxamide]
EC50 [1]: 70 nM

CN(C(=O)c1cc2cc(F)c(F)cc2[nH]1)[C@@H]1COC(F)c2[nH]c(=O)c3cc(F)c(F)cc3c21 (stereo partly drawn) [Compound 411, 5,6-Difluoro-N-methyl-N-((1S)-4,8,9-trifluoro-6-oxo-1,4,5,6-tetrahydro-2H-pyrano[3,4-c]isoquinolin-1-yl)-1H-indole-2-carboxamide]
EC50 [1]: 10 nM

CN(C(=O)C1(O)Cc2ccccc2C1)[C@@H]1COCc2[nH]c(=O)c3cc(F)c(F)cc3c21 [Compound 275, (S)-N-(8,9-Difluoro-6-oxo-1,4,5,6-tetrahydro-2H-pyrano[3,4-c]isoquinolin-1-yl)-2-hydroxy-N-methyl-2,3-dihydro-1H-indene-2-carboxamide]
EC50 [1]: 3840 nM

CN(C(=O)c1cc(F)cc(Oc2ccccc2)c1)[C@@H]1COCc2[nH]c(=O)c3cc(F)c(F)cc3c21 [Compound 303, (S)-N-(8,9-Difluoro-6-oxo-1,4,5,6-tetrahydro-2H-pyrano[3,4-c]isoquinolin-1-yl)-3-fluoro-N-methyl-5-phenoxybenzamide]
EC50 [1]: 6700 nM

CN(C(=O)c1cc2ccccc2[nH]1)C1COCc2[nH]c(=O)c3cc(F)c(F)cc3c21 (single isomer, unassigned) [Compound 21, N-(8,9-Difluoro-6-oxo-1,4,5,6-tetrahydro-2H-pyrano[3,4-c]isoquinolin-1-yl)-N-methyl-1H-indole-2-carboxamide]
EC50 (HepDE19 assay): 3300 nM

CN(C(=O)c1cc2c(Cl)cc(F)cc2[nH]1)C1COCc2[nH]c(=O)c3cc(F)ccc3c21 (single isomer, unassigned) [Compound 438, 4-Chloro-6-fluoro-N-(8-fluoro-6-oxo-1,4,5,6-tetrahydro-2H-pyrano[3,4-c]isoquinolin-1-yl)-N-methyl-1H-indole-2-carboxamide]
EC50 (HepDE19 assay): 1700 nM

CN(C(=O)c1cn2cc(Cl)ccc2n1)[C@@H]1COCc2[nH]c(=O)c3cc(F)c(F)cc3c21 [Compound 51, (S)-6-Chloro-N-(8,9-difluoro-6-oxo-1,4,5,6-tetrahydro-2H-pyrano[3,4-c]isoquinolin-1-yl)-N-methylimidazo[1,2-a]pyridine-2-carboxamide]
EC50 [1]: 1300 nM

CN(C(=O)c1cc2c(CO)cc(F)cc2[nH]1)[C@@H]1COCc2[nH]c(=O)c3cc(F)c(F)cc3c21 [Compound 355, (S)-N-(8,9-Difluoro-6-oxo-1,4,5,6-tetrahydro-2H-pyrano[3,4-c]isoquinolin-1-yl)-6-fluoro-4-(hydroxymethyl)-N-methyl-1H-indole-2-carboxamide]
EC50 [1]: 20 nM

CN(C(=O)C1Cc2ccccc2C1)[C@@H]1COCc2[nH]c(=O)c3cc(F)c(F)cc3c21 [Compound 195, (S)-N-(8,9-Difluoro-6-oxo-1,4,5,6-tetrahydro-2H-pyrano[3,4-c]isoquinolin-1-yl)-N-methyl-2,3-dihydro-1H-indene-2-carboxamide]
EC50 [1]: 150 nM

Source: patent publication US20240228504A1, “SUBSTITUTED TRICYCLIC AMIDES, ANALOGUES THEREOF, AND METHODS USING SAME” (Arbutus Biopharma Corporation, priority 2020, published 2024)
